This is an account of results in patent US20090202661A1, “BEVERAGE MANUFACTURE, PROCESSING, PACKAGING AND DISPENSING USING ELECTROCHEMICALLY ACTIVATED WATER” (priority 2008, published 2009).

The data set can be described thus: Residue neutralization: recovery and breakdown of pesticide and fungicide active ingredients after exposure to anolyte dilutions. The format is physicochemical. The note with it: 5 minutes, ambient temperature. The procedure:
The breakdown of pesticide and fungicide residues by an oxidant ECA anolyte solution was evaluated as follows.
The oxidant anolyte solution was diluted using a 10 fold dilution series. As a control for this test, the potential for non-ECA based hydrolysis or chemical breakdown was assessed using two untreated control solutions, one being the tap water used as the diluent in the anolyte dilution series and the other being the non-activated brine solution that was used as the electrolysis feed solution prior to electro-activation.
The experiment was performed to contrast the difference in degree of recovery of a variety of pesticide and fungicide active ingredients (AI's) after the tap water and the various diluted anolyte solutions were ‘spiked’ with the same AI's at fixed inclusion rates. In each case, a one ppm cocktail of the active ingredients was added to a 100 ml aliquot of the test or control solution sample. The test samples were agitated with a mechanical stirrer for 5 minutes at ambient temperature and then extracted with an organic solvent and analyzed by either gas or liquid chromatography.

Setting [1] is: 0.25% Brine (nonactivated control).

In the case of `CCCCNC(=O)n1c(NC(=O)OC)nc2ccccc21` [Benomyl], the ng found was determined as 0.970 ng under setting [1], 0.890 ng (1% Anolyte solution), 0.520 ng (10% anolyte solution) and 0.000 ng (100% anolyte solution). Besides, the “% breakdown” value by setting is: (1% Anolyte solution) 8.0%; (10% anolyte solution) 45%; (100% anolyte solution) 100%.

Regarding `CNC(=O)ON=C(C)SC` [Methomyl], the ng found runs as follows: under setting [1], 1.006 ng; (1% Anolyte solution) 0.634 ng; (10% anolyte solution) 0.000 ng; (100% anolyte solution) 0.000 ng. Further, the “% breakdown” value (1% Anolyte solution) is 36.6%, the “% breakdown” value (10% anolyte solution) was determined as 100% and the “% breakdown” value (100% anolyte solution) came to 100%.

On to `CNC(=O)O/N=C/C(C)(C)[S+](C)[O-]` (stereo not shown) [Aldicarb sulfoxide], for which the ng found is given as 0.672 ng under setting [1], 0.514 ng (1% Anolyte solution), 0.000 ng (10% anolyte solution) and 0.000 ng (100% anolyte solution). The “% breakdown” value (1% Anolyte solution) was determined as 15.8%, the “% breakdown” value (10% anolyte solution) worked out at 100% and the “% breakdown” value (100% anolyte solution) turned out to be 100%.

With `CO/N=C(/C(=O)OC)c1ccccc1COc1ccccc1C` [Kresoxim-methyl], the ng found runs as follows: under setting [1], 1.300 ng; (1% Anolyte solution) 1.328 ng; (10% anolyte solution) 1.344 ng; (100% anolyte solution) 0.035 ng. Further, the “% breakdown” value (1% Anolyte solution) amounted to 0.0%, the “% breakdown” value (10% anolyte solution) stood at 0.0% and the “% breakdown” value (100% anolyte solution) was 100%.

Turning to `CNC(=O)O/N=C/C(C)(C)SC` [Aldicarb], the ng found under setting [1] came to 0.920 ng, the ng found (1% Anolyte solution) came out at 0.425 ng, the ng found (10% anolyte solution) is reported as 0.000 ng and the ng found (100% anolyte solution) is 0.000 ng. For the same compound, the “% breakdown” value by setting is: (1% Anolyte solution) 49.5%; (10% anolyte solution) 100%; (100% anolyte solution) 100%.

With `CCCCc1c(C)nc(NCC)nc1OS(=O)(=O)N(C)C` [Bupirimate], the ng found under setting [1] came to 1.250 ng, the ng found (1% Anolyte solution) is on record as 1.233 ng, the ng found (10% anolyte solution) is recorded as 0.730 ng and the ng found (100% anolyte solution) came to 0.074 ng. For the same compound, the “% breakdown” value (1% Anolyte solution) came to 0.0%, the “% breakdown” value (10% anolyte solution) is on record as 52.0% and the “% breakdown” value (100% anolyte solution) is given as 100%.

For the compound `COP(=S)(OC)SCn1nnc2ccccc2c1=O` [Azinphos-methyl], the ng found was determined as 2.341 ng under setting [1], 2.393 ng (1% Anolyte solution), 0.000 ng (10% anolyte solution) and 0.000 ng (100% anolyte solution). Also, the “% breakdown” value came out at 0.0% (1% Anolyte solution), 100% (10% anolyte solution) and 100% (100% anolyte solution).

Regarding `Cc1cc(C2CC2)nc(Nc2ccccc2)n1` [Cyprodinil], the ng found came out at 1.297 ng under setting [1], 1.356 ng (1% Anolyte solution), 0.068 ng (10% anolyte solution) and 0.026 ng (100% anolyte solution). For the same compound, the “% breakdown” value (1% Anolyte solution) was 0.0%, the “% breakdown” value (10% anolyte solution) is on record as 96.3% and the “% breakdown” value (100% anolyte solution) worked out at 100%.

For the compound `CCOC(=O)CC(SP(=S)(OC)OC)C(=O)OCC` (stereo not shown) [Malathion], the ng found runs as follows: under setting [1], 1,327 ng; (1% Anolyte solution) 1.368 ng; (10% anolyte solution) 0.066 ng; (100% anolyte solution) 0.067 ng. For the same compound, the “% breakdown” value worked out at 0.0% (1% Anolyte solution), 100% (10% anolyte solution) and 100% (100% anolyte solution).

With `CCOP(=S)(OCC)Oc1nc(Cl)c(Cl)cc1Cl` [Chlorpyrifos], the ng found under setting [1] is 1.014 ng, the ng found (1% Anolyte solution) is 1.039 ng, the ng found (10% anolyte solution) was found to be 0.05 ng and the ng found (100% anolyte solution) turned out to be 0.049 ng. The “% breakdown” value reads like this: (1% Anolyte solution) 0.0%; (10% anolyte solution) 100%; (100% anolyte solution) 100%.
